Results on one substance are retold here after patent US20240287614A1, “RECIPROCAL MICRORNA-MRNA PAIRINGS AS BIOMARKERS AND THERAPEUTIC TARGETS IN CANCER” (UNIVERSITY OF MARYLAND, EASTERN SHORE, priority 2023, published 2024).

For series [1], the system named is HT-29, SW620, MDA MB 231, MCF7, A549, and H1299. Put plainly: Caspase 3/7 activity-based apoptosis assay, colon, breast and lung cancer cell lines. Set-up: species or system human. As to the method:
HT-29, SW620, MDA MB 231, MCF7, A549, and H1299 were seeded at a density of 3×10^4 cells/well in 96-well plates. The cells were grown overnight and then followed by transfections. After 24 h, fresh media were applied to replace the transfection reagent-containing media with […] of docetaxel or vehicle, then the cells were incubated for an additional 24 h. The Apo-ONE Caspase-3/7 Assay Kit (Promega Corporation) was used to measure apoptosis according to the protocol described by the manufacturer. Then, 100 μL of homogeneous Caspase-3/7 reagent was added to each well and the plate incubated at room temperature for 30 min to 2 h. Fluorescence was detected for measuring (at wavelengths of 499/521 nm excitation/emission) the apoptosis state (Caspase 3/7 activity) using Biotek Synergy HT Microplate Reader (BioTek).

Series [2] has as its system prostate cancer (LNCaP and PC-3) and prostate cancer (RC77 T/E and MDA PCa 2b) cell lines. The experiment in a line: Caspase 3/7 activity-based apoptosis assay, prostate cancer cell lines. Also noted: species or system human. As to the method:
[…] RC77 T/E, a primary prostate cancer cell line derived from a patient, was kindly provided by Dr. Johng Rhim at Center for Prostate Disease Research (CPDR) in Rockville, MD. LNCaP and PC-3 were served as prostate cancer cell line models, and RC77 T/E and MDA PCa 2b were served as prostate cancer cell models in the study. The cells were cultured in specific cell culture media, LNCaP was cultured in RPMI with 10% fetal bovine serum (FBS), PC-3 was cultured in DMEM with 10% FBS, MDA PCa 2b were cultured in BRFF-HPC1 with 20% FBS and RC77 T/E was cultured in Keratinocyte SFM with Human Recombinant Epidermal Growth Factor (EGF 1-53) and Bovine Pituitary Extract (BPE). Cells were maintained at 37° C. in a 5% CO2 incubator. LNCaP, PC-3 and MDA PCa 2b cells were seeded at density 3×10^4 cells/well in 6-well plates. RC77 T/E cells were seeded at density 5×10^4 cells/well in 6-well plates. The cells were allowed to grow for 24 h and then were either transfected with miR-34a-5p mimic, miR-99b-5p mimic, or miR-96-5p antagomir using DharmaFECT4 transfection reagent (Dharmacon), according to the manufacturer's protocol. After 24 h, the cells were replaced with fresh media then incubated for 24 h. miR-34a-5p mimic, miR-99b-5p mimic, miR-96-5p antagomir, and nonsense miRNA mimic and antagomir controls were purchased from Ambion. Nonsense/scrambled miRNA mimic and antagomir were used as negative controls.
For the measurement of apoptosis initiation by transfection of miRNA mimic or antagomir in prostate cancer cells, the transfected cells 5000 cells/well were seeded onto 96-well cell culture plates (Corning) and then incubated overnight. The miRNA mimic/antagomir transfected cells were then treated with vehicle or […] of Docetaxel. 24 h after the vehicle or drug treatment, the apoptosis assays were performed using Apo-ONE Caspase-3/7 Assay Kit (Promega Corporation) according to the protocol described by the manufacturer. 100 μL of homogeneous Caspase-3/7 reagent was added to the sample plate and incubated at room temperature for 1 h. Fluorescence was detected for measuring the apoptosis state (Caspase 3/7 activity) using Biotek Synergy HT Microplate Reader (BioTek) at wavelengths of 499 nm and 521 nm for excitation and emission, respectively.

Turning to “miR-99b-5p mimic: miRNA mimic of miR-99b-5p (SEQ ID NO: 2, CACCCGUAGAACCGACCUUGCG), purchased from Ambion (listed as RNA, chemistry not given here; listed as Homo sapiens)”, the “cell apoptosis (caspase 3/7 activity) in the presence of docetaxel” value in series [1] (HT-29, SW620, MCF-7, A549, H1299, 11 mM of docetaxel, 24 h) is reported as “moderate to significant cell apoptosis”. In series [1] (colon, breast, lung cancer cells, without docetaxel (vehicle)), the “apoptosis (caspase 3/7 activity), single agent” value was “not sufficient to initiate significant apoptosis”. Also, the “docetaxel-induced cytotoxicity (caspase 3/7 activity), combination with docetaxel” value in series [2] (LNCaP cells, 11 mM of Docetaxel, 24 h) is listed as “further enhanced”. Besides, the “apoptosis (caspase 3/7 activity), transfection in the presence of docetaxel” value in series [2] (RC77 T/E and MDA PCa 2b, 11 mM of Docetaxel, 24 h) is on record as “significantly induced apoptosis”. In addition, in series [2] (absence of docetaxel (vehicle control), LNCaP, PC-3, RC77 T/E, MDA PCa 2b), the “cell apoptosis (caspase 3/7 activity) compared with NS transfected cells” value is given as “overall generalized or significant increase”.
